In ChEMBL document CHEMBL4610052, “Application of tandem biotransformation for biosynthesis of new pentacyclic triterpenoid derivatives with neuroprotective effect” (Bioorg Med Chem Lett, 2020):

Test system: PC-12
Assay: Neuroprotective activity against CoCl2-induced neuronal injury in rat PC12 cells
Type: functional, cell-based

Row | SMILES | EC50
1 | CC1(C)C[C@H]2C3=CC[C@@H]4[C@@]5(C)CC[C@H](O)C(C)(C)[C@@H]5C[C@H](O)[C@@]4(C)[C@]3(C)CC[C@@]2(C(=O)O)C[C@@H]1O | > 40 µM
2 | CC1(C)[C@@H](O)CC[C@]2(C)[C@H]3CC=C4[C@@H]5C[C@](C)(CO)[C@@H](O)C[C@]5(C(=O)O)CC[C@@]4(C)[C@]3(C)[C@@H](O)C[C@@H]12 | 7.74 µM
3 | CC1(C)[C@@H](O)CC[C@]2(C)[C@H]3C(=O)C=C4[C@@H]5C[C@@](C)(C(=O)O)CC[C@]5(C)CC[C@@]4(C)[C@]3(C)[C@@H](O)C[C@@H]12 | 1.76 µM
4 | CC1(C)CC[C@]2(C(=O)O)CC[C@]3(C)C(=CC[C@@H]4[C@@]5(C)CC[C@H](O)C(C)(C)[C@@H]5CC[C@]43C)[C@@H]2C1 [OLEANOLIC_ACID] | 8.55 µM
5 | CC1(C)[C@@H](O)CC[C@]2(C)[C@H]3CC=C4[C@@H]5C[C@](C)(C(=O)O)[C@@H](O)C[C@]5(C(=O)O)CC[C@@]4(C)[C@]3(C)[C@@H](O)C[C@@H]12 | 0.48 µM
6 | CC1(C)C[C@H]2C3=CC[C@@H]4[C@@]5(C)CC[C@H](O[C@H]6O[C@@H](CO)[C@H](O)[C@@H](O)[C@@H]6O)C(C)(C)[C@@H]5C[C@H](O)[C@@]4(C)[C@]3(C)CC[C@@]2(C(=O)O)C[C@@H]1O | > 40 µM
7 | OC[C@H]1O[C@@H](OCCc2ccc(O)cc2)[C@H](O)[C@@H](O)[C@@H]1O [SALIDROSIDE] | 0.21 µM
8 | CC1(C)[C@@H](O)CC[C@]2(C)[C@H]3C(=O)C=C4[C@@H]5C[C@@](C)(C(=O)O)CC[C@]5(C)CC[C@@]4(C)[C@]3(C)CC[C@@H]12 [ENOXOLONE] | 0.89 µM
9 | CC1(C)[C@@H](O)CC[C@]2(C)[C@H]3C(=O)C=C4[C@@H]5C[C@@](C)(C(=O)O[C@@H]6O[C@H](CO)[C@@H](O)[C@H](O)[C@H]6O)CC[C@]5(C)CC[C@@]4(C)[C@]3(C)CC[C@@H]12 | > 40 µM
10 | CC1(C)[C@@H](O)CC[C@]2(C)[C@H]3C(=O)C=C4[C@@H]5C[C@@](C)(C(=O)O[C@@H]6O[C@H](CO)[C@@H](O)[C@H](O)[C@H]6O)CC[C@]5(C)CC[C@@]4(C)[C@]3(C)[C@@H](O)C[C@@H]12 | > 40 µM
